Measurements: US6127131A (Synaptic Pharmaceutical Corporation, priority 1998, dated 2000)

What was measured:
[1] = target: T1, glycine transporter encoded by rB20a (Rattus norvegicus, UniProt P28572); assay: Competition for [3H]glycine uptake by COS-7 cells transfected with rB20a; assay type: cell-based; conditions: agents at 1 mM (Table 1)
T1 construct: expressed in transfected cells; host or cells: COS-7 cells, transient transfection with pSVL-rB20a
T1 sequence (P28572 1-638): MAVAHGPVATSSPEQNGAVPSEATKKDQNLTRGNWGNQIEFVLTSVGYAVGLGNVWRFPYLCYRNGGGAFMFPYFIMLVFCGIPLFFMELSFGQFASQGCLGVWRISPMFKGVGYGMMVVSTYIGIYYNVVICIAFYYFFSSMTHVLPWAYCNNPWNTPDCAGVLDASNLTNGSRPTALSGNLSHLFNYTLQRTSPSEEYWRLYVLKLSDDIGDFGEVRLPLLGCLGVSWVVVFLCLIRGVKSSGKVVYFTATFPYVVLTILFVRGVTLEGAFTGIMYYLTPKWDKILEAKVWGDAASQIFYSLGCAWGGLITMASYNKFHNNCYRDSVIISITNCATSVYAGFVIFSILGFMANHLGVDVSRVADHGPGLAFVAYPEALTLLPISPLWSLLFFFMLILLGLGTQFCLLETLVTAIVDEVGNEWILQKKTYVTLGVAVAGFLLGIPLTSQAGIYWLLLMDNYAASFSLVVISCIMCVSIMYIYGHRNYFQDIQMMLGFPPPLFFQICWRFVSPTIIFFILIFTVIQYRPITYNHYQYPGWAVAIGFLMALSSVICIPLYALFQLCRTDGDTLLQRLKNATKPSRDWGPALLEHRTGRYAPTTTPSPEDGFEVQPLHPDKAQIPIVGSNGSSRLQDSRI
Experimental: These two clones were constructed into a full-length clone (designated rB20a) by ligation at their internal Nco I sites and then cloned into the eukaryotic expression vector pSVL (Pharmacia LKB Biotechnology, Piscataway, N.J.). Transient transfection of COS cells was carried out using DEAE-dextran with DMSO according to the method of Lopata et al. (1984) with minor modifications. COS cells were grown in six-well plates (37° C.,5%CO2) in high glucose Dulbecco's modified Eagle medium supplemented with 10% bovine calf serum, 100 U/ml penicillin G, and 100 μg/ml streptomycin sulfate. Cells were routinely used two days after transfection for transport studies.
(§1) Plates were incubated at 37° C. for 10 or 20 minutes, then washed rapidly 3× with HBS. Cells were solubilized with 0.05% sodium deoxycholate/0.1N NaOH (1 ml/well), 0.5 ml aliquots were removed, neutralized with 1N HCl, and radioactivity was determined by scintillation counting. Protein was quantified in an aliquot of the solubilized cells with the Bradford Reagent (Biorad, Richmond, Calif.), according to the manufacturer's directions.
Nonspecific uptake was determined with 1 mM

[2] = target: T2, transporter encoded by rB20a (Rattus norvegicus, UniProt P28572); assay: Screen of COS cells transfected with rB20a for transport of radiolabeled neurotransmitters and amino acids; assay type: cell-based; conditions: data not shown
T2 sequence (P28572 1-638): T1 sequence (P28572 1-638)
Experimental: as §1

Compound | competition for [3H]glycine uptake (in words) [1] | effect of rB20a expression on uptake of the radiolabeled substrate [2]
N[C@@H](CO)C(=O)O [L-serine] | Neither α-(methylamino) isobutyric acid (1 mM), a substrate for system A, nor L-serine (1 mM), a substrate for system ASC, significantly competed | 
CNC(C)(C)C(=O)O [α-(methylamino) Isobutyric acid] | Neither α-(methylamino) isobutyric acid (1 mM), a substrate for system A, nor L-serine (1 mM), a substrate for system ASC, significantly competed | 
[^3 H]glutamate |  | did not significantly alter
